In patent publication US8778966B2, “Quinolinone derivatives as PARP and tank inhibitors” (Janssen Pharmaceutica, NV, priority 2007, dated 2014):
Read-outs that look alike come from different tables or passages of the source.

Tests used:
[1] = biological target: T1, TANK-2 enzyme (Homo sapiens, UniProt Q9H2K2); experiment: In vitro Scintillation Proximity Assay (SPA) for TANK-2 inhibitory activity; format: biochemical
T1 construct: made in house
T1 sequence (Q9H2K2 1-1166): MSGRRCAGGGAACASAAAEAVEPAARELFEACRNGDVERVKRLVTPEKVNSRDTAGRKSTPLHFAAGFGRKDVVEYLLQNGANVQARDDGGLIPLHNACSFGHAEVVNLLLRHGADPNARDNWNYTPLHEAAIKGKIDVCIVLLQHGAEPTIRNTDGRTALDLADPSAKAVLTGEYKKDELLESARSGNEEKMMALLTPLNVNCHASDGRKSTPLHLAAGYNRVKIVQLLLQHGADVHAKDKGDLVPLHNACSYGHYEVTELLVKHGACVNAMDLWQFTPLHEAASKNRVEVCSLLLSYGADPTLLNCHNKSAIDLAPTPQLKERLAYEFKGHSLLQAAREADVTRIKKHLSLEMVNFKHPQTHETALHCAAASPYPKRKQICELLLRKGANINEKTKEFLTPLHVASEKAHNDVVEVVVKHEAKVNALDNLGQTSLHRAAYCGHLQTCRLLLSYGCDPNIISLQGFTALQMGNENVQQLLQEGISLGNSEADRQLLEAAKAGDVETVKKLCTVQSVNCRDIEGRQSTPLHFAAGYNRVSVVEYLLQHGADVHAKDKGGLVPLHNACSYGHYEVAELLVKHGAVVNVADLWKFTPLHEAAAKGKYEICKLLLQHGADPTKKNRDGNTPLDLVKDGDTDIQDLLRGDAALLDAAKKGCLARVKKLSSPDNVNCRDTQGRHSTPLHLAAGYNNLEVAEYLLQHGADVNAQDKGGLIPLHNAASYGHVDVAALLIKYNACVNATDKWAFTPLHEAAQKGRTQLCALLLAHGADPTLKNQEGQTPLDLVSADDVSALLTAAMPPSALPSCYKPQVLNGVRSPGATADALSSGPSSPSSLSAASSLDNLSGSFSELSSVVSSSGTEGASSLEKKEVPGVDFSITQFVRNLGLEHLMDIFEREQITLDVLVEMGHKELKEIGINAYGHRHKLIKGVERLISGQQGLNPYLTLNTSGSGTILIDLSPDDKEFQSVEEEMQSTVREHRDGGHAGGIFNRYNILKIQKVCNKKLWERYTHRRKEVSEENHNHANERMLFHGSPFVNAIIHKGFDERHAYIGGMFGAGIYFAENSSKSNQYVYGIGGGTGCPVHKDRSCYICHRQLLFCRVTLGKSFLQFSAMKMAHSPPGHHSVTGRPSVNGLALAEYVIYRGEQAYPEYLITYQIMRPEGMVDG
Outline: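 Results are pIC50 values, with IC50 interpolated linearly around 50% of blank-subtracted control cpm. They come from a scintillation proximity read of TANK-2 (8 μg/ml) self-modification with [3H]-NAD+/NAD, incubated 120 min at room temperature in pH 7.4 Tris buffer containing MgCl2 and DTT. Compounds were first screened at 10^−5 M.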

[2] = test system: PC3 cells; experiment: EB1 Comet (microtubule disruption) assay; format: cell-based, human; details: Homo sapiens, PC-3, 1 h, 1 hour treatment, read-out: EB1 pLAC (converted)
Outline: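 Readout is loss of Eb1 plus-end foci, scored by immunofluorescence microscopy, in PC3 cells after 1 h compound treatment at 37 °C with 0.6% final DMSO. LAC is defined as the lowest concentration leaving at least 50% of cells without Eb1 foci.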

[3] = read-out: in vitro SPA assay TANK-2 pIC50 (converted)

IC50 ([1]; in vitro SPA assay TANK-2 pIC50) [nM]	IC50 [1, 3] [nM]	SMILES	minimal effective concentration [2] [µM]
158		CCc1cc2ccc(C(C)(C#N)Cc3nc(C#N)cc(OC)n3)cc2[nH]c1=O (single isomer, unassigned) [Compound 204]	
	20	CCc1cc2c(OC)cc(C(C)(C#N)Cc3nc(OC)cc(OC)n3)cc2[nH]c1=O (single isomer, unassigned) [Compound 230]	1
	100	CCc1cc2ccc([C@@](C)(C#N)CCOc3ccc(C#N)cc3)cc2[nH]c1=O (single isomer, unassigned) [Compound 273]	0.1
	63.1	CCc1cc2ccc([C@](C)(C#N)CCOc3ccc(C#N)cc3)cc2[nH]c1=O (single isomer, unassigned) [Compound 275]	
	126	CCc1cc2ccc([C@](C)(C#N)Cc3cccc(/C=C/S(C)(=O)=O)c3)cc2[nH]c1=O (single isomer, unassigned) [Compound 291]	
	126	CCc1cc2ccc([C@@](C)(C#N)Cc3cccc(C#CCO)c3)cc2[nH]c1=O (single isomer, unassigned) [Compound 295]	
	200	CCc1cc2ccc([C@](C)(C#N)Cc3cccc(C#CCO)c3)cc2[nH]c1=O (single isomer, unassigned) [Compound 296]	
	50.1	CCc1cc2ccc([C@@](C)(C#N)Cc3cc(OC)nc(C)n3)cc2[nH]c1=O (single isomer, unassigned) [Compound 361]	
	126	CCc1cc2ccc([C@](C)(C#N)Cc3cc(OC)nc(C)n3)cc2[nH]c1=O (single isomer, unassigned) [Compound 362]	
	2000	Cc1cc2ccc([C@@](C)(C#N)C3CCc4ccccc43)cc2[nH]c1=O (single isomer, unassigned) [Compound 385]	10
	1260	Cc1cc2ccc([C@](C)(C#N)C3CCc4ccccc43)cc2[nH]c1=O (single isomer, unassigned) [Compound 386]	0.316
	50.1	CCc1cc2ccc(C(C)(C#N)Cc3cccc(OCCCN4CCNCC4)c3)cc2[nH]c1=O (stereo not drawn) [Compound 25]	> 10
	251	CCc1cc2ccc(C(C#N)(Cc3ccccc3)c3ccc(C#N)cc3)cc2[nH]c1=O (stereo not drawn) [Compound 26]	> 10
	631	CCc1cc2ccc(C(C#N)(Cc3ccccc3)c3ccccc3)cc2[nH]c1=O (stereo not drawn) [Compound 27]	10
	31.6	CCc1cc2ccc(C(C#N)(Cc3ccccc3)C3CC3)cc2[nH]c1=O (stereo not drawn) [Compound 29]	1
	794	CCc1cc2ccc(C(C#N)(Cc3ccccc3)C(C)C)cc2[nH]c1=O (stereo not drawn) [Compound 30]	3.16
	251	CCCC(C#N)(Cc1ccccc1)c1ccc2cc(CC)c(=O)[nH]c2c1 (stereo not drawn) [Compound 31]	10
	200	CCc1cc2ccc(C(C)(C#N)Cc3cc(OC)ccc3F)cc2[nH]c1=O (stereo not drawn) [Compound 171]	0.1
	158	CCc1cc2ccc(C(C)(C#N)Cc3cccc(-c4ccc[nH]4)c3)cc2[nH]c1=O (stereo not drawn) [Compound 176]	1
	200	CCc1cc2ccc(C(C)(C#N)Cc3cccc(CCS(C)(=O)=O)c3)cc2[nH]c1=O (stereo not drawn) [Compound 178]	3.16
	2510	Cc1cc2ccc(C(C)(C#N)Cc3cccc(C=Cc4ccccc4)c3)cc2[nH]c1=O (stereo not drawn) [Compound 179]	1.78
	158	CCc1cc2ccc(C(C)(C#N)Cc3cccc(/C=N/OC)c3)cc2[nH]c1=O (stereo not drawn) [Compound 185]	0.1
	79.4	CCc1cc2ccc(C(C)(C#N)Cc3cccc(C(=N)NO)c3)cc2[nH]c1=O (stereo not drawn) [Compound 186]	3.16
		Cc1cc2ccc(C(C)(C#N)Cc3cccc(Oc4ccc(F)cc4)c3)cc2[nH]c1=O (stereo not drawn) [Compound 192]	1
	126	CCc1cc2ccc(C(C)(C#N)Cc3cccc(OCCCC#N)c3)cc2[nH]c1=O (stereo not drawn) [Compound 194]	1
	398	CCc1cc2ccc(C(C)(C#N)Cc3cccc(OCCC#N)c3)cc2[nH]c1=O (stereo not drawn) [Compound 195]	0.0316

IC50 ([1]; in vitro SPA assay TANK-2 pIC50) [nM]	IC50 [1, 3] [nM]	SMILES	minimal effective concentration [2] [µM]
	316	C#CCOc1cccc(CC(C)(C#N)c2ccc3cc(CC)c(=O)[nH]c3c2)c1 (stereo not drawn) [Compound 196]	
	63.1	CCc1cc2ccc(C(C)(C#N)COCc3ccccc3)cc2[nH]c1=O (stereo not drawn) [Compound 197]	
	200	CCc1cc2ccc(C(C)(C#N)Cc3cccc(OCCS(C)(=O)=O)c3)cc2[nH]c1=O (stereo not drawn) [Compound 201]	0.562
	251	CCc1cc2ccc(C(C)(C#N)Cc3nc(Cl)cc(OC)n3)cc2[nH]c1=O (stereo not drawn) [Compound 202]	
	200	CCc1cc2ccc(C(C)(C#N)Cc3nc(N(C)C)cc(N(C)C)n3)cc2[nH]c1=O (stereo not drawn) [Compound 205]	1
	501	CCc1cc2ccc(C(C)(C#N)Cc3cccc(N4CCC(N(C)C)C4)n3)cc2[nH]c1=O (stereo not drawn) [Compound 209]	0.316
	158	CCc1cc2ccc(C(C)(C#N)Cc3cccc(C#Cc4cncn4C)n3)cc2[nH]c1=O (stereo not drawn) [Compound 217]	1
	1000	CCc1cc2ccc(C(C)(C#N)Cc3cccc(N(C)CCc4ccccc4)n3)cc2[nH]c1=O.Cl (stereo not drawn) [Compound 220]	3.16
	15.8	CCc1cc2ccc(C(C)(C#N)Cc3cccc(C#N)[n+]3[O-])cc2[nH]c1=O (stereo not drawn) [Compound 228]	0.562
	10	CCc1cc2c(OC)cc(C(C)(C#N)Cc3nc(OC)cc(OC)n3)cc2[nH]c1=O (stereo not drawn) [Compound 229]	3.16
	158	CCc1cc2ccc(C(C)(C#N)CN3CCN(c4ccccn4)CC3)cc2[nH]c1=O (stereo not drawn) [Compound 233]	1
	1000	Cc1nc(-c2ccccc2)sc1CC(C)(C#N)c1ccc2cc(C)c(=O)[nH]c2c1 (stereo not drawn) [Compound 235]	
	126	CCc1cc2ccc(C(C)(C#N)Cc3cccc4c3CCN4)cc2[nH]c1=O (stereo not drawn) [Compound 237]	3.16
	794	CCc1cc2ccc(C(C)(C#N)Cc3cccc(C(=O)OC(C)C)c3)cc2[nH]c1=O (stereo not drawn) [Compound 255]	
	1260	Cc1cc2ccc(C(C)(C#N)Cc3cccc(I)c3)cc2[nH]c1=O (stereo not drawn) [Compound 256]	0.316
	251	CCc1cc2ccc(C(C)(C#N)Cc3cccc(NC)c3)cc2[nH]c1=O (stereo not drawn) [Compound 257]	0.316
	251	CCc1cc2ccc(C(C)(C#N)Cc3cc(Br)cc(N(C)C)c3)cc2[nH]c1=O (stereo not drawn) [Compound 260]	
	2510	Cc1cc2ccc(C(C)(C#N)Cc3cccc(OCC4CCOCC4)c3)cc2[nH]c1=O (stereo not drawn) [Compound 261]	1.78
	1000	CCc1cc2ccc(C(C)(C#N)Cc3cc(C(C)C)ccc3OC)cc2[nH]c1=O (stereo not drawn) [Compound 288]	
	251	CCc1cc2ccc(C(C)(C#N)Cc3cc(Cl)nc(N(C)C)c3)cc2[nH]c1=O (stereo not drawn) [Compound 323]	
	100	CCc1cc2ccc(C(C)(C#N)Cc3cccc(NC)n3)cc2[nH]c1=O (stereo not drawn) [Compound 339]	
	501	CCc1cc2ccc(C(C)(C#N)Cc3ccc4c(c3)OC(F)(F)O4)cc2[nH]c1=O (stereo not drawn) [Compound 346]	
	158	CCc1cc2ccc(C(C)(C#N)Cc3nc(OC)cc(N(C)C)n3)cc2[nH]c1=O (stereo not drawn) [Compound 355]	
	100	CCc1cc2ccc(C(C)(C#N)Cc3cccc4[nH]ccc34)cc2[nH]c1=O (stereo not drawn) [Compound 379]	
	1000	Cc1cc2ccc(C(C)(C#N)Cc3cccc(/C=C/CCO)c3)cc2[nH]c1=O (stereo not drawn) [Compound 409]	
